Structures can show the parent of a compound that is named as a salt.
Biological target: recombinant human SYK (GST-hSYK fusion protein) (Homo sapiens, UniProt P43405)
Assay: biochemical
[1] = rhSYK Activity (IC50), recombinant human GST-SYK 5 pM, ATP 25 μM, biotinylated substrate peptide 250 nM, HTRF, 10-dose titration

From the text: Homogeneous Time-Resolved Fluorescence (HTRF) Assay for the Recombinant Human SYK Enzyme:

Cc1cc(Nc2nccc(C(F)(F)F)n2)cc(-c2cnc(-c3cnn(CC(C)(C)O)c3)s2)c1 [Example 115-5]
IC50 (rhSYK Activity, Table 115): < 100 nM

Cc1cc(Nc2ncc(Cl)c(C)n2)cc(-c2cnc(C3(O)CCC3)s2)c1 [Example 103, 1-(5-{3-[(5-chloro-4-methylpyrimidin-2-yl)amino]-5-methylphenyl}-1,3-thiazol-2-yl)cyclobutanol]
IC50 [1]: < 100 nM

Cc1cc(Nc2nccc(C(F)(F)F)n2)cc(-c2cnc(C3(O)CCC(NC(=O)CC4CCCO4)CC3)s2)c1 (centres unmarked) [Example 54E-17]
IC50 (rhSYK Activity, Table 54E): < 100 nM

Cc1cc(Nc2nccc(C(F)(F)F)n2)cc(-c2cnc(-c3cn[nH]c3)s2)c1 [Example 114, N-{3-methyl-5-[2-(1H-pyrazol-4-yl)-1,3-thiazol-5-yl]phenyl}-4-(trifluoromethyl)pyrimidin-2-amine]
IC50 [1]: < 100 nM

Cc1cc(Nc2nccc(C(F)(F)F)n2)cc(-c2cnc(CCc3nnc(C)o3)s2)c1 [Example 79-8]
IC50 [1]: < 100 nM

Cc1cc(Nc2nccc(C(F)(F)F)n2)cc(-c2cnc(C(=O)O)s2)c1 [Example 86, 5-(3-methyl-5-{[4-(trifluoromethyl)pyrimidin-2-yl]amino}phenyl)-1,3-thiazole-2-carboxylic acid]
IC50 [1]: < 100 nM

COC(=O)C1CCC(O)(c2ncc(-c3cc(C)cc(Nc4ncc(F)c(C5CC5)n4)c3)s2)CC1(C)C (centres unmarked) [Example 33A-39]
IC50 (rhSYK Activity, Table 33-A): < 100 nM

Cc1cc(Nc2nccc(C(F)(F)F)n2)cc(-c2cnc(CC(C)(C)C(=O)O)s2)c1 [Example 78, 2,2-dimethyl-3-[5-(3-methyl-5-{[4-(trifluoromethyl)pyrimidin-2-yl]amino}phenyl)-1,3-thiazol-2-yl]propanoic acid (potassium salt and TFA salt)]
IC50 [1]: < 100 nM

CC(=O)N1CCCC(O)(c2ncc(-c3cc(C)cc(Nc4nccc(C(F)(F)F)n4)c3)s2)CC1 (centres unmarked) [Example 54D-2]
IC50 (rhSYK Activity, Table 54D): < 100 nM

C=CCC(=O)N1CCCC(O)(c2ncc(-c3cc(C)cc(Nc4nccc(C(F)(F)F)n4)c3)s2)CC1 (centres unmarked) [Example 54D-11]
IC50 (rhSYK Activity, Table 54D): < 100 nM

Cc1cc(Nc2nccc(C3CC3)n2)cc(-c2cnc(C3(O)CCC3)s2)c1 [Example 56-3]
IC50 (rhSYK Activity, Table 56): < 100 nM

Cc1cc(Nc2nccc(C)n2)cc(-c2cnc(C3(O)CCC(C(=O)O)C(C(C)C)C3)s2)c1 (centres unmarked) [Example 33B-35]
IC50 (rhSYK Activity, Table 33B): < 100 nM

COC(=O)[C@H]1CC[C@](O)(c2ncc(-c3cc(C)cc(Nc4nccc(C(N)=O)n4)c3)s2)CC1(C)C [Example 101-7]
IC50 [1]: < 100 nM

Cc1cc(Nc2nccc(C(F)(F)F)n2)cc(-c2cnc([C@@]3(O)CC[C@H](C(=O)O)C(C)(C)C3)s2)c1Br [Example 111, (1S,4R)-4-[5-(2-bromo-3-methyl-5-{[4-(trifluoromethyl)pyrimidin-2-yl]amino}phenyl)-1,3-thiazol-2-yl]-4-hydroxy-2,2-dimethylcyclohexanecarboxylic acid]
IC50 [1]: < 100 nM

COC(=O)C(C)(C)CCC(C)(O)c1ncc(-c2cc(C)cc(Nc3nccc(C(F)(F)F)n3)c2)s1 (centres unmarked) [Example 33D-4]
IC50 (rhSYK Activity, Table 33D): < 100 nM

OC1(c2ncc(-c3cccc(Nc4nccc(C(F)(F)F)n4)c3)s2)CCC1 [Example 68-2]
IC50 (rhSYK Activity, table after Example 68): < 100 nM

Cc1cc(Nc2nccc(C(F)(F)F)n2)cc(-c2cnc(C(=O)NC3(CO)CCCC3)s2)c1 [Example 87A-16]
IC50 [1]: 1000 to 10000 nM

CCC(CO)(CO)C(=O)N1CCCC(O)(c2ncc(-c3cc(C)cc(Nc4nccc(C(F)(F)F)n4)c3)s2)CC1 (centres unmarked) [Example 54D-102]
IC50 (rhSYK Activity, Table 54D): < 100 nM

Cc1cc(Nc2nccc(C(F)(F)F)n2)cc(-c2cnc(C3(O)CCCN(C(=O)C4CCCCO4)CC3)s2)c1 (centres unmarked) [Example 54D-65]
IC50 (rhSYK Activity, Table 54D): < 100 nM

Cc1cc(Nc2nccc(OC3CCCC3)n2)cc(-c2cnc(C3(O)CCC3)s2)c1 [Example 94A-31]
IC50 [1]: < 100 nM

Cc1cc(Nc2nccc([C@@H](C)F)n2)cc(-c2cnc([C@@]3(O)CC[C@H](C(=O)O)C(C)(C)C3)s2)c1 [(1S,4R)-4-{5-[3-({4-[(1R)-1-fluoroethyl]pyrimidin-2-yl}amino)-5-methylphenyl]-1,3-thiazol-2-yl}-4-hydroxy-2,2-dimethylcyclohexanecarboxylic acid]
IC50 (Syk IC50, HTRF, recombinant human GST-SYK): < 0.5 nM

CCOC(=O)C(C)NC(=O)NCc1ncc(-c2cc(C)cc(Nc3nccc(C(F)(F)F)n3)c2)s1 (centres unmarked) [Example 88A-64]
IC50 [1]: < 100 nM

Cc1cc(Nc2nccc(C(F)(F)F)n2)cc(-c2cnc(C3(O)CCN(C(=O)[C@@H](C)O)CC3)s2)c1 [Example 54A-21]
IC50 (RHSYK Activity, Table 54A): < 100 nM

Cc1cc(Nc2nccc(C(C)C)n2)cc(-c2cnc([C@]3(O)CC[C@@H](C(=O)O)CC3)s2)c1 [116A-3]
IC50 (rhSYK Activity, Table 116A): < 100 nM

Cc1cc(Nc2nccc(C(F)(F)F)n2)cc(-c2cnc(CNCCOCCO)s2)c1 [Example 88A-42]
IC50 [1]: < 100 nM

Cc1cc(Nc2nccc(C(F)(F)F)n2)cc(-c2cnc(C3(O)CCN(C(=O)c4ccccc4)CC3)s2)c1 [Example 54A-34]
IC50 (RHSYK Activity, Table 54A): < 100 nM

COC(=O)C1CCC(O)(c2ncc(-c3cc(C)cc(Nc4nccc(C)n4)c3)s2)CC1C (centres unmarked) [Example 113A-13]
IC50 (rhSYK Activity, Table 113A): 100 to 1000 nM

COc1nc(Nc2cc(C)cc(-c3cnc([C@]4(O)CC[C@@H](C(=O)O)CC4)s3)c2)ncc1F [116A-5]
IC50 (rhSYK Activity, Table 116A): < 100 nM

CCOC(=O)CCC1CCC(O)(c2ncc(-c3cc(C)cc(Nc4nccc(C(F)(F)F)n4)c3)s2)CC1 (centres unmarked) [Example 33A-21]
IC50 (rhSYK Activity, Table 33-A): < 100 nM

CC(C)(c1ncc(-c2cc(Nc3nccc(C(F)(F)F)n3)cc(C(F)F)c2)s1)S(N)(=O)=O [74A-11]
IC50 (rhSYK Activity, Table 74A): < 100 nM

Cc1cc(Nc2nccc(C3CC3)n2)cc(-c2cnc(C3(O)CCC(C(=O)O)C(C)C3)s2)c1 (centres unmarked) [Example 113A-22]
IC50 (rhSYK Activity, Table 113A): < 100 nM

Cc1cc(Nc2nccc(C)n2)cc(-c2cnc(C3(O)CCC(C(=O)O)C(C)C3)s2)c1 (centres unmarked) [Example 113A-4]
IC50 (rhSYK Activity, Table 113A): < 100 nM

Cc1cc(Nc2ncc(F)cn2)cc(-c2cnc(C3(O)CCC(C(=O)O)C(C)(C)C3)s2)c1 (centres unmarked) [Example 33A-45]
IC50 (rhSYK Activity, Table 33-A): 100 to 1000 nM

Cc1cc(Nc2nccc(C(F)(F)F)n2)cc(-c2cnc(C3(O)CCNC3)s2)c1 (centres unmarked) [54B-5]
IC50 (rhSYK Activity, Table 54B): < 100 nM

COc1ccnc(Nc2cc(C)cc(-c3cnc(C4(O)CCN(C(=O)NC(=O)N(C)C)CC4)s3)c2)n1 [Example 54A-17]
IC50 (RHSYK Activity, Table 54A): < 100 nM

Cc1cc(Nc2nccc(C(F)(F)F)n2)cc(-c2cnc(C3(O)CCN(C(=O)[C@@H]4CCCC(=O)N4)CC3)s2)c1 [Example 54A-52]
IC50 (RHSYK Activity, Table 54A): < 100 nM

Cc1cc(Nc2nccc(C(F)(F)F)n2)cc(-c2cnc(C3(O)CCCN(C(=O)c4ccnc(Cl)n4)CC3)s2)c1 (centres unmarked) [Example 54D-105]
IC50 (rhSYK Activity, Table 54D): < 100 nM

COc1ccnc(Nc2cc(C)cc(-c3cnc([C@@]4(O)CC[C@H](C(=O)O)[C@H](C)C4)s3)c2)n1 [Example 113A-16]
IC50 (rhSYK Activity, Table 113A): < 100 nM

Cc1cc(Nc2ncc(Cl)c(C)n2)cc(-c2cnc([C@@]3(O)CC[C@H](C(=O)O)[C@H](C)C3)s2)c1 [Example 113A-27]
IC50 (rhSYK Activity, Table 113A): < 100 nM

CCOC(=O)C1CC(C)C(O)(c2ncc(-c3cc(C)cc(Nc4nccc(C(F)(F)F)n4)c3)s2)CC1C (centres unmarked) [Example 113B-20]
IC50 (rhSYK Activity, Table 113B): 100 to 1000 nM

Cc1cc(Nc2nccc(C(F)(F)F)n2)cc(-c2cnc(C3(C(=O)N(C)C)CC3)s2)c1 [Example 85B-1]
IC50 [1]: < 100 nM

Cc1cc(Nc2nccc(C(F)(F)F)n2)cc(-c2cnc(CNC(C)CO)s2)c1 (centres unmarked) [Example 88A-15]
IC50 [1]: < 100 nM

Cc1cc(Nc2nccc(C(F)(F)F)n2)cc(-c2cnc(CNC3(C(=O)O)CC3)s2)c1 [Example 88A-21]
IC50 [1]: < 100 nM

Cc1cc(Nc2nccc(C(F)(F)F)n2)cc(-c2cnc(C3(O)CC4(CC(C(=O)O)C4)C3)s2)c1 (centres unmarked) [Example 33C-1]
IC50 (rhSYK Activity, Table 33C): < 100 nM

Cc1cc(Nc2nccc(C(F)(F)F)n2)cc(-c2cnc(CN(C)CC(O)CO)s2)c1 (centres unmarked) [Example 88A-28]
IC50 [1]: < 100 nM

COC(=O)C1CCC(O)(c2ncc(-c3cc(C)cc(Nc4nccc(C)n4)c3)s2)CC1C (centres unmarked) [Example 113A-8]
IC50 (rhSYK Activity, Table 113A): < 100 nM

Cc1cc(Nc2nccc(C)n2)cc(-c2cnc(C3(O)CC(C)C(C(=O)O)C(C)C3)s2)c1 (centres unmarked) [Example 113B-21]
IC50 (rhSYK Activity, Table 113B): < 100 nM

Cc1cc(Nc2nccc(C(F)(F)F)n2)cc(-c2cnc(C(=O)N3CCn4cccc4C3)s2)c1 [Example 87B-6]
IC50 [1]: < 100 nM

COC(=O)C1(C(=O)N2CCCC(O)(c3ncc(-c4cc(C)cc(Nc5nccc(C(F)(F)F)n5)c4)s3)CC2)CC1 (centres unmarked) [Example 54D-95]
IC50 (rhSYK Activity, Table 54D): < 100 nM

Cc1cc(Nc2ncc(F)c(C3CC3)n2)cc(-c2cnc([C@]3(O)CC[C@@H](O)CC3)s2)c1 [8A-4]
IC50 (rhSYK Activity, Table 8A): < 100 nM

Cc1cc(Nc2nccc(-c3cccs3)n2)cc(-c2cnc(C3(O)CCC(C(=O)OC(C)(C)C)CC3)s2)c1 (centres unmarked) [116A-15]
IC50 (rhSYK Activity, Table 116A): 100 to 1000 nM

Cc1cc(Nc2nccc(OCc3cccc4ccnn34)n2)cc(-c2cnc(C3(O)CCC3)s2)c1 [Example 108A-7]
IC50 (rhSYK Activity, Table 108A): 100 to 1000 nM

Cc1cc(Nc2nccc(C(F)(F)F)n2)cc(-c2cnc(C3(O)CCN(C(=O)CC#N)CC3)s2)c1 [Example 54A-6]
IC50 (RHSYK Activity, Table 54A): < 100 nM

Cc1cc(Nc2nccc(C(F)(F)F)n2)cc(-c2cnc([C@]3(O)CC[C@@H](NC(=O)C4CCCCC4)CC3)s2)c1 [Example 54E-14]
IC50 (rhSYK Activity, Table 54E): < 100 nM

Cc1cc(Nc2nccc(C(F)(F)F)n2)cc(-c2cnc(C(=O)N3CCCC3)s2)c1 [Example 87B-1]
IC50 [1]: 100 to 1000 nM

Cc1cc(Nc2nccc(C(F)(F)F)n2)cc(-c2cnc(C3(C(=O)O)CC3)s2)c1 [Example 84, 1-[5-(3-methyl-5-{[4-(trifluoromethyl)pyrimidin-2-yl]amino}phenyl)-1,3-thiazol-2-yl]cyclopropanecarboxylic acid (TFA salt)]
IC50 [1]: < 100 nM

Cc1cc(Nc2nccc(C(F)(F)F)n2)cc(-c2cnc(C3(O)CCN(C(=O)C(O)C(F)(F)F)CC3)s2)c1 (racemic) [Example 54A-60]
IC50 (RHSYK Activity, Table 54A): < 100 nM

Cc1cc(Nc2nccc(C(F)(F)F)n2)cc(-c2cnc(C3(O)CC(C)C(C(=O)O)CC3C)s2)c1 (centres unmarked) [Example 113B-12]
IC50 (rhSYK Activity, Table 113B): < 100 nM

CCOC(=O)C1CC(C)C(O)(c2ncc(-c3cc(C)cc(Nc4nccc(C(F)(F)F)n4)c3)s2)CC1C (centres unmarked) [Example 113B-18]
IC50 (rhSYK Activity, Table 113B): < 100 nM

Reference: US8551984B2, “Aminopyrimidines as SYK inhibitors” (Merck Sharp & Dohme Corp., priority 2009, dated 2013)
